The record followed here is patent US20240317735A1, “HYDROISOQUINOLINE OR HYDRONAPHTHYRIDINE COMPOUNDS FOR THE TREATMENT OF AUTOIMMUNE DISEASE” (Hoffmann-La Roche Inc., priority 2020, published 2024).

In series [1] the target is T1, human TLR8 (Homo sapiens, UniProt Q9NR97).
T1 construct: host or cells: HEK293 (HEK-Blue hTLR8)
T1 sequence (Q9NR97 27-1041): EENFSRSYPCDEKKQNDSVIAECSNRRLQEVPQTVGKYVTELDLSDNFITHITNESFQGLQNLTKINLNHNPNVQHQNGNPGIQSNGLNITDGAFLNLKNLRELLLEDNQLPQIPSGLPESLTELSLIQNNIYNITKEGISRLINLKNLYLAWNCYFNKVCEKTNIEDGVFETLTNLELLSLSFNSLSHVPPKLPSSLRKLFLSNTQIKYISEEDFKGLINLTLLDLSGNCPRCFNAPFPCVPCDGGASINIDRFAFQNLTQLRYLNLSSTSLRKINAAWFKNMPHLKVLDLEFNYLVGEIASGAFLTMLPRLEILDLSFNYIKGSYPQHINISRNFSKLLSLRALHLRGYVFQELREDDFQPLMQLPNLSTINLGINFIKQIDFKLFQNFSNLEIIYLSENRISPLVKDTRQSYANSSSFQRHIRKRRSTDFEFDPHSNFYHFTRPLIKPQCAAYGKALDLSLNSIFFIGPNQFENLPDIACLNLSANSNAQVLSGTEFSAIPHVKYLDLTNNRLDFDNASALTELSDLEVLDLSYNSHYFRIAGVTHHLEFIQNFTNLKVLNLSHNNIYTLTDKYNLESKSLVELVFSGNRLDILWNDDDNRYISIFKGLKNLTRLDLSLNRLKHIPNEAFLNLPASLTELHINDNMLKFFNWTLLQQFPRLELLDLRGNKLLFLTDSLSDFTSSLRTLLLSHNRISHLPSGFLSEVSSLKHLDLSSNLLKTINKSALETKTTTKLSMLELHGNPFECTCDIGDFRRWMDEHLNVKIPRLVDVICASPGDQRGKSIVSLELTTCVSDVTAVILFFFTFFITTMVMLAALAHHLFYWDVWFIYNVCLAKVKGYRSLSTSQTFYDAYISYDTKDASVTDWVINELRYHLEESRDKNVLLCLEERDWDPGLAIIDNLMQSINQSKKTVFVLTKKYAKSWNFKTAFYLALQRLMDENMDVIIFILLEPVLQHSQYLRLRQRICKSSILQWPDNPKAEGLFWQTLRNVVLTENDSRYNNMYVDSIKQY
Briefly: HEK293-Blue-hTLR-8 cells assay (SEAP reporter, R848 stimulation). Type of series: cell-based. Particulars: HEK293-Blue-hTLR8 cells, R848, 20 hrs; read-out: HEK/hTLR8 IC50. The procedure: The following tests were carried out in order to determine the activity of the compounds of formula (I) and (Ia) in HEK293-Blue-hTLR-7/8/9 cells assay.
A stable HEK293-Blue-hTLR-8 cell line was purchased from InvivoGen (Cat. #: hkb-htlr8, San Diego, California, USA). These cells were originally designed for studying the stimulation of human TLR8 by monitoring the activation of NF-κB. A SEAP (secreted embryonic alkaline phosphatase) reporter gene was placed under the control of the IFN-β minimal promoter fused to five NF-κB and AP-1-binding sites. The SEAP was induced by activating NF-κB and AP-1 via stimulating HEK-Blue hTLR8 cells with TLR8 ligands. Therefore the reporter expression was declined by TLR8 antagonist under the stimulation of a ligand, such as R848, for incubation of 20 hrs. The cell culture supernatant SEAP reporter activity was determined using QUANTI-Blue™ kit (Cat. #: rep-qb1, Invivogen, San Diego, Ca, USA) at a wavelength of 640 nm, a detection medium that turns purple or blue in the presence of alkaline phosphatase.
HEK293-Blue-hTLR8 cells were incubated at a density of 250,000˜450,000 cells/mL in a volume of 170 μL in a 96-well plate in Dulbecco's Modified Eagle's medium (DMEM) containing 4.5 g/L glucose, […] penicillin, […], […] Normocin, 2 mM L-glutamine, 10% (v/v) heat-inactivated fetal bovine serum with addition of 20 μL test compound in a serial dilution in the presence of final DMSO at 1% and 10 μL of 60 uM R848 in above DMEM, perform incubation under 37° C. in a C02 incubator for 20 hrs. Then 20 μL of the supernatant from each well was incubated with 180 μL Quanti-blue substrate solution at 37° C. for 2 hrs and the absorbance was read at 620-655 nm using a spectrophotometer. The signaling pathway that TLR8 activation leads to downstream NF-κB activation has been widely accepted, and therefore similar reporter assay was modified for evaluating TLR8 antagonist.

Series [2] can be described thus: Human microsome stability assay. Type of series: in vitro ADME. The following applies: 1 μM test compound, 0.5 mg/mL liver microsomal protein, 37° C., pH 7.4. The procedure: The human microsomal stability assay is used for early assessment of metabolic stability of a test compound in human liver microsomes.
Human liver microsomes (Cat. NO.: 452117, Corning, USA; Cat. NO.: H2610, Xenotech, USA) were preincubated with test compound for 10 minutes at 37° C. in 100 mM potassium phosphate buffer, pH 7.4. The reactions were initiated by adding NADPH regenerating system. The final incubation mixtures contained 1 μM test compound, 0.5 mg/mL liver microsomal protein, 1 mM MgCl2, 1 mM NADP, 1 unit/mL isocitric dehydrogenase and 6 mM isocitric acid in 100 mM potassium phosphate buffer, pH 7.4. After incubation times of 0, 3, 6, 9, 15 and 30 minutes at 37° C., 300 μL of cold acetonitrile (including internal standard) was added to 100 μL incubation mixture to terminate the reaction. Following precipitation and centrifugation, the amount of compound remaining in the samples were determined by LC-MS/MS. Controls of no NADPH regenerating system at zero and 30 minutes were also prepared and analyzed.

Structures are written as SMILES.

With `C[C@H]1CN(c2ccnc3c2cnn3C)Cc2ccc(N3C[C@@H]4CCNCC4C3=O)cc21` (relative stereo) [Example 55, cis-2-[(4R)-4-methyl-2-(1-methylpyrazolo[3,4-b]pyridin-4-yl)-3,4-dihydro-1H-isoquinolin-6-yl]-3a,4,5,6,7,7a-hexahydro-1H-pyrrolo[3,4-c]pyridin-3-one], the IC50 in series [1] was 6 nM. In series [2], the “Clearance of Human microsome” value was 8.2 mL/min/kg.

`C[C@H]1CN(c2ccnc3c2cnn3C)Cc2ccc(N3C[C@@]4(CCNC4)CC3=O)cc21` (single isomer, unassigned) [Example 53]: in series [1], the IC50 was 6 nM. Further, the “Clearance of Human microsome” value in series [2] came to 7.0 mL/min/kg.

Regarding `C[C@H]1CN(c2ccnc3c2cnn3C)Cc2ccc(N3CCNCC3)cc21` [Example 1, (4R)-4-methyl-2-(1-methylpyrazolo[3,4-b]pyridin-4-yl)-6-piperazin-1-yl-3,4-dihydro-1H-isoquinoline], the IC50 in series [1] is 2 nM. Also, the “Clearance of Human microsome” value in series [2] was 6.2 mL/min/kg.

Turning to `Cc1cc(N2Cc3ccc(N4CCNCC4)cc3[C@@H](C)C2)c2cnn(C)c2n1` [Example 2, (4R)-2-(1,6-dimethylpyrazolo[3,4-b]pyridin-4-yl)-4-methyl-6-piperazin-1-yl-3,4-dihydro-1H-isoquinoline], the IC50 in series [1] was 1 nM. In addition, the “Clearance of Human microsome” value in series [2] is recorded as 9.0 mL/min/kg.

Consider `Cn1ncc2c(N3CCc4cc(N5CCNCC5)ccc4C3)ccnc21` [Example 3, 2-(1-methylpyrazolo[3,4-b]pyridin-4-yl)-6-piperazin-1-yl-3,4-dihydro-1H-isoquinoline], for which the IC50 in series [1] came to 56 nM. In addition, the “Clearance of Human microsome” value in series [2] stood at 9.5 mL/min/kg.

Consider `C[C@H]1CN(c2ccnc3c2cnn3C)Cc2ccc(N3CCN(C(=O)C4CCNCC4)CC3)cc21` [Example 7, 4-piperidyl-[4-[(4R)-4-methyl-2-(1-methylpyrazolo[3,4-b]pyridin-4-yl)-3,4-dihydro-1H-isoquinolin-6-yl]piperazin-1-yl]methanone], for which, in series [1], the IC50 is 17 nM. Further, in series [2], the “Clearance of Human microsome” value is 10.3 mL/min/kg.

With `C[C@H]1CN(c2ccnc3c2cnn3C)Cc2ccc(N3CCN(C(=O)C4CCCN4)CC3)cc21` (stereo partly drawn) [Example 8, pyrrolidin-2-yl-[4-[(4R)-4-methyl-2-(1-methylpyrazolo[3,4-b]pyridin-4-yl)-3,4-dihydro-1H-isoquinolin-6-yl]piperazin-1-yl]methanone], the IC50 in series [1] came to 6 nM. Further, the “Clearance of Human microsome” value in series [2] came out at 7.0 mL/min/kg.

As for `C[C@H]1CN(c2ccnc3c2cnn3C)Cc2ccc(N3CCN(c4cc5c(cn4)CCNC5)CC3)cc21` [Example 9, 7-[4-[(4R)-4-methyl-2-(1-methylpyrazolo[3,4-b]pyridin-4-yl)-3,4-dihydro-1H-isoquinolin-6-yl]piperazin-1-yl]-1,2,3,4-tetrahydro-2,6-naphthyridine], in series [1], the IC50 worked out at 11 nM. Also, the “Clearance of Human microsome” value in series [2] came to 9.9 mL/min/kg.

`C[C@H]1CN(c2ccnc3c2cnn3C)Cc2ccc(N3CCC(O)(CN(C)C)CC3)cc21` [Example 13, 4-[(dimethylamino)methyl]-1-[(4R)-4-methyl-2-(1-methylpyrazolo[3,4-b]pyridin-4-yl)-3,4-dihydro-1H-isoquinolin-6-yl]piperidin-4-ol]: the IC50 in series [1] came out at 2 nM. In addition, the “Clearance of Human microsome” value in series [2] amounted to 6.2 mL/min/kg.

On to `Cc1cc(N2Cc3ccc(N4CCC(O)(CN(C)C)CC4)cc3[C@@H](C)C2)c2cnn(C)c2n1` [Example 14, 4-[(dimethylamino)methyl]-1-[(4R)-2-(1,6-dimethylpyrazolo[3,4-b]pyridin-4-yl)-4-methyl-3,4-dihydro-1H-isoquinolin-6-yl]piperidin-4-ol], for which, in series [1], the IC50 was 1 nM. For the same compound, the “Clearance of Human microsome” value in series [2] is on record as 6.2 mL/min/kg.

Regarding `CC1CN(c2ccc3c(c2)[C@@H](C)CN(c2ccnc4c2cnn4C)C3)CCN1` (stereo partly drawn) [Example 15, (4R)-4-methyl-6-(3-methylpiperazin-1-yl)-2-(1-methylpyrazolo[3,4-b]pyridin-4-yl)-3,4-dihydro-1H-isoquinoline], in series [1], the IC50 is 3 nM. Further, the “Clearance of Human microsome” value in series [2] amounted to 6.2 mL/min/kg.

Take `C[C@H]1CN(c2ccnc3c2cnn3C)Cc2ccc(N3CC4(CCNCC4)CC3=O)cc21` [Example 16, 2-[(4R)-4-methyl-2-(1-methylpyrazolo[3,4-b]pyridin-4-yl)-3,4-dihydro-1H-isoquinolin-6-yl]-2,8-diazaspiro[4.5]decan-3-one]: in series [1], the IC50 is 4 nM. In series [2], the “Clearance of Human microsome” value is 8.2 mL/min/kg.

With `C[C@H]1CN(c2ccnc3c2cnn3C)Cc2ccc(OC[C@H]3CNCCN3)cc21` [Example 18, (4R)-4-methyl-2-(1-methylpyrazolo[3,4-b]pyridin-4-yl)-6-[[(2R)-piperazin-2-yl]methoxy]-3,4-dihydro-1H-isoquinoline], the IC50 in series [1] stood at 4 nM. For the same compound, in series [2], the “Clearance of Human microsome” value worked out at 10.5 mL/min/kg.

With `C[C@H]1CN(c2ccnc3c2cnn3C)Cc2ccc(OC[C@@H]3CNCCN3)cc21` [Example 19, (4R)-4-methyl-2-(1-methylpyrazolo[3,4-b]pyridin-4-yl)-6-[[(2S)-piperazin-2-yl]methoxy]-3,4-dihydro-1H-isoquinoline], the IC50 in series [1] was found to be 4 nM. In addition, the “Clearance of Human microsome” value in series [2] is 7.7 mL/min/kg.

As to `CO[C@@H]1CN(c2ccc3c(c2)[C@@H](C)CN(c2ccnc4c2cnn4C)C3)C[C@H]1N` [Example 20, (3R,4R)-4-methoxy-1-[(4R)-4-methyl-2-(1-methylpyrazolo[3,4-b]pyridin-4-yl)-3,4-dihydro-1H-isoquinolin-6-yl]pyrrolidin-3-amine], the IC50 in series [1] is 17 nM. Besides, in series [2], the “Clearance of Human microsome” value was 10.2 mL/min/kg.

For the compound `C[C@H]1CN(c2ccnc3c2cnn3C)Cc2ccc(N3CC4(CNCCO4)C3)cc21` [Example 21, 2-[(4R)-4-methyl-2-(1-methylpyrazolo[3,4-b]pyridin-4-yl)-3,4-dihydro-1H-isoquinolin-6-yl]-5-oxa-2,8-diazaspiro[3.5]nonane], the IC50 in series [1] was 14 nM. The “Clearance of Human microsome” value in series [2] turned out to be 10.1 mL/min/kg.

In the case of `CCn1ncc2c(N3Cc4ccc(N5CCNCC5)cc4[C@@H](C)C3)ccnc21` [Example 22, (4R)-2-(1-ethylpyrazolo[3,4-b]pyridin-4-yl)-4-methyl-6-piperazin-1-yl-3,4-dihydro-1H-isoquinoline], the IC50 in series [1] was found to be 16 nM. Also, the “Clearance of Human microsome” value in series [2] is given as 6.2 mL/min/kg.
